# Source: patent US20080199464A1, “Combination Therapy with Angiogenesis Inhibitors” (Genentech, Inc., priority 2007, published 2008)
# Assays:
# [1] = test system: Caki-2 human renal cell carcinoma xenografts; assay: Growth inhibition of established Caki-2 renal cell carcinoma xenografts; format: in vivo, SCID mice
# Description: (§1) Volume was calculated using the formula:
# (§2) Tumor Volume(mm^3)=(W2×l)/2
# (§3) Tumors were measured twice weekly using calipers. […] Treatment outcome was based on tumor growth inhibition (TGI).
# (§4) Animals were monitored for regression responses.
# [2] = test system: 786-O renal cell carcinoma (RCC) xenografts; assay: Growth inhibition of established 786-O renal cell carcinoma xenografts; format: in vivo, athymic nude mice; details: high sunitinib dose 50 mg/kg daily, alone or with B20-4.1
# Description: as §1, §2, §3, §4
# [3] = test system: H1299 human non-small cell lung carcinoma (NSCLC) xenografts; assay: Growth inhibition of established H1299 human NSCLC xenografts; format: in vivo, athymic nude mice; details: Day 19, longer term study, alone or with B20-4.1
# Description: as §1, §2, §3, §4
# [4] = test system: LS174T human colon carcinoma xenografts; assay: Growth inhibition of established LS174T human colon carcinoma xenografts; format: in vivo, athymic nude mice; details: Day 18 of separate 25-day study; high sunitinib dose 50 mg/kg daily, alone or with B20-4.1
# Description: as §1, §2, §3, §4
compound,measurement,setting,value
"CCN(CC)CCNC(=O)c1c(C)[nH]c(/C=C2\C(=O)Nc3ccc(F)cc32)c1C [sunitinib, N-[2-(diethylamino)ethyl]-5-[(Z)-(5-fluoro-1,2-dihydro-2-oxo-3H-indol-3-ylidine)methyl]-2,4-dimethyl-1H-pyrrole-3-carboxamde]",TGI (tumor growth inhibition),"[1]; Day 29, high dose (50 mg/kg) sunitinib, alone or with B20-4.1",62%
same,Day 29 mean tumor volumes (MTVs),[1]; low dose (25 mg/kg) sunitinib monotherapy,352 mm^3
same,TGI (tumor growth inhibition),[2],80%
same,TGI (tumor growth inhibition),[3]; sunitinib 25 mg/kg daily,32%
same,TGI (tumor growth inhibition),[3]; sunitinib 50 mg/kg daily,62%
same,TGI (tumor growth inhibition),[4],43%
